Data set [1] concerns clinical strains of Candida albicans. Description: MIC, clinical yeast strains, Candida albicans. Also noted: unit: μg/ml. The data set is classed as cell-based. The protocol: (§1) Minimum inhibition concentrations (MICs) were determined against Escherichia coli (ATCC 25922), Staphylococcus aureus (ATCC 25923), Klebsiella pneumoniae (ATCC 10031) and Pseudomonas aeruginosa (ATCC 27853). Also clinical strains of E. coli, K. pneumoniae, E. cloacae, P. aeruginosa, Serratia marcescens, Proteus mirabilis, S. pneumoniae, Acinetobacter baumannii, A. johnsonii and S. aureus were used for MICs assays. Additionally, clinical strains of yeast including Candida albicans, C. glabrata, C. parapsilosis and C. quillermondiae were used. The susceptibility of these microorganisms to Chain peptides were determined using micro broth dilution assay. Colonies of the respective microorganism from Muller Hinton (MH) agar plates incubated overnight were suspended in MH broth media and final concentration of microorganism was adjusted to 5.0×10^5 cfu/ml. An aliquot of 10 μl of each Chain peptide, or gentamicin, tetracycline as reference antibiotics were added in differing concentrations along with 90 μl of bacterial suspension to 96 well polypropylene plates and incubated at 37° C. for 20 to 24 hours. Concentrations of Chain peptides and reference antibiotics ranged from 0.125 to 128 μg/ml and the MICs were recorded as the lowest concentration with no visual growth of bacteria. Similarly, antifungal MICs were tested in Potato dextrose broth.
(§2) Clinical strains of yeasts including Candida albicans, C. glabrata, C. parapsilosis and C. quillermondiae were also tested with the 12 Chain peptides. The minimum inhibitory concentration (MICs) varied between these peptides and are presented in Tables 4a, 4b, 4c and 5a, 5b, 5c. Peptides Chain 105, 201 and 308 are broad spectrum antimicrobials with MICs between 0.5-32 μg/ml against all the bacteria and yeasts tested, except Serratia marcescens and Proteus mirabilis, against which the MICs were between 64-128 μg/ml. Peptide Chain 306 has narrow spectrum activity against E.coli at 1 μg/ml and for the rest of the bacterial strains at >32 μg/ml (FIG. 10).

Data set [2] has as its system clinical strains of Acinetobacter johnsonii. The data set is classed as cell-based. The protocol: as §1, §2
Data set [3] relates to clinical strains of C. quillermondiae. The data set is described as follows: MIC, clinical yeast strains, C. quillermondiae. The data set is classed as cell-based. To be noted: C. quillermondiae clinical yeast strain 1. On the procedure:
as §1, §2

For data set [4], the system named is clinical strains of C. glabrata. Description: MIC, clinical yeast strains, C. glabrata. The data set is classed as cell-based, Candida glabrata. The arrangement: unit: μg/ml. The protocol: as §1, §2
The subject of data set [5] is clinical strains of C. parapsilosis. Description: MIC, clinical yeast strains, C. parapsilosis. The data set is classed as cell-based, Candida parapsilosis. Also noted: unit: μg/ml. The protocol: as §1, §2
In data set [6] the test system is human erythrocytes. The data set is classed as cell-based. The protocol:
In hemolysis assays, the ability of peptides at 128 μg/ml concentration to lyse human erythrocytes to release hemoglobin was measured. The peptides described here preferably have low hemolytic activity (0.2 to 3.8% hemolysis) in mammal body. […] These peptides are useful as antimicrobial drugs as they show little or no side effects at concentrations needed to kill bacteria.
Minimum inhibition concentrations (MICs) were tested by microbroth dilution method and Chain 104, 105 and 109 inhibited the growth of Escherichia coli (ATCC 25922), Staphylococcus aureus (ATCC 25923), Klebsiella pneumoniae (ATCC 10031) and Pseudomonas aeruginosa (ATCC 27853) between 1-8 μg/ml respectively (Tables 3a, 3b and 3c). The membranolytic activities of the peptides were tested by measuring the release of hemoglobin from erythrocytes of fresh blood donated by voluntiers. Hemoglobin levels were determined spectrometrically by taking OD at 540 nm by following the protocol of Schmidtchen et al., 2011.

The subject of data set [7] is gram positive and negative bacteria. The data set is described as follows: MIC by micro broth dilution, summary over the strains tested. The data set is classed as cell-based. On the procedure:
as §1

Data set [8] has as its system Aspergillus flavus (DSM 1959). Description: Radial diffusion assay, antifungal, A. flavus. The data set is classed as cell-based. To be noted: 20 μg. On the procedure: (§3) The radial diffusion assay (RDA) was carried out as described by Andersen et al. (2010). Briefly, 30 ml of 1/10 Muller-Hinton broth (MHB) supplemented with 1% agarose and 5.0×10^5 CFU/ml S. aureus or E. coli or K. pneumoniae, P. aeruginosa cells was poured into a single-well omnitray (Nunc) and overlaid with a TSP 96-well plate. One hundred μg of each synthesized peptide was tested. The peptides were also tested against Fusarium oxysporum and Verticillium dahliae, for which 1/3 potato dextrose agarose was used. To test the synergistic effect of peptides, each peptide was mixed in equimolar concentrations. Mix1 (met1-12), Mix2 (met3, 4 and 5), Mix3 (met 8, 9 and 10), Mix 4 (met11, 12) and Mix5 (8, 9, 10, 11, 12) were prepared and tested against E. coli and S. aureus. Gentamicin and vancomycin were included as positive controls for bacteria and amphotericin B was used as the control for fungi.
(§4) By using rational design techniques, we have designed variants of peptides by incorporating or replacing various amino acids in the original peptides. Thus, we have designed and modified Chain 100, Chain 200 and Chain 300 with tryptophan (W), arginine (R) and lysine (K) at various positions to improve antimicrobial activity (FIGS. 4a-c and 5a-c). In some peptides we have also used other amino acids such as Leucine (L), Cysteine (C), Isoleucine (I), Phenylalanine (F) and Alanine (A). For synthesis, 32 variants and 3 original peptides were selected based on the various parameters such as positive charge, aliphatic index and instability index. Peptides variants were tested by using radial diffusion assay against Escherichia coli (ATCC 25922), Staphylococcus aureus (ATCC 25923), Klebsiella pneumoniae (ATCC 10031) and Pseudomonas aeruginosa (ATCC 27853) (FIGS. 6a-c). The zone of inhibition ranged between 10-18 mm for Escherichia coli and Staphylococcus aureus, 6-18 mm & 8-18 mm for Pseudomonas aeruginosa and Klebsiella pneumonia respectively (Table 2). For Gentamicin it was between 22-24 mm. Antifungal activity was tested for promising antibacterial peptides (Chains 104, 105, 109, 201, 204, 306, 307, 308, 310) against Aspergillus flavus (DSM 1959) and Penicillium chrysogenum (DSM 1075). All these peptides has activity at a concentration of 20 μg, Amphotericin B was used as a positive control at 20 μg (FIG. 7).

Data set [9] deals with Penicillium chrysogenum (DSM 1075). The data set is described as follows: Radial diffusion assay, antifungal, P. chrysogenum. The data set is classed as cell-based. Conditions: 20 μg. The protocol: as §3, §4
Data set [10] deals with S. aureus COL (MRSA). Description: Synergistic activity with Ertapenem (4 μg/ml) against MRSA, MIC. The data set is classed as cell-based, Staphylococcus aureus. Conditions: Ertapenem 4 μg/ml; L-form. On the procedure: as §1
Peptides Chain 104, Chain 105, Chain 201, Chain 308, Chain 310 were tested against antibiotic-sensitive strains of S. aureus RN4220 and methicillin resistant strains of S. aureus COL (MRSA). Chain peptides comprising of either L- or D-form amino acids were tested against these bacteria, and the D-form peptides were found have better activity compared to L-form (Table 6). Synergistic activity of chain peptides along with Ertapenem (4 μg/ml) was tested to know whether it will influence the activity against MRSA strains. […] Chain 310 has the best antibacterial activity against the MRSA strains with a MIC of 0.06 & 0.03 μg/ml along with Ertapenem (4 μg/ml) for both forms of L and D-peptides (Table 6).

[11] abbreviates: Candida albicans clinical yeast strain 1.
The mark [12] stands for this setting: Candida albicans clinical yeast strain 2.
Where [13] appears, read: Candida albicans clinical yeast strain 3.
The mark [14] stands for this setting: Candida albicans clinical yeast strain 4.
The mark [15] stands for this setting: Candida albicans clinical yeast strain 5.
[16] abbreviates: C. glabrata clinical yeast strain 1.
The mark [17] stands for this setting: C. glabrata clinical yeast strain 2.
Setting [18] is: C. glabrata clinical yeast strain 3.
Where [19] appears, read: C. glabrata clinical yeast strain 4.
Setting [20] is: C. parapsilosis clinical yeast strain 1.
The mark [21] stands for this setting: C. parapsilosis clinical yeast strain 2.
[22] abbreviates: C. parapsilosis clinical yeast strain 3.
Where [23] appears, read: C. parapsilosis clinical yeast strain 4.

≈ marks a conversion by molar mass, not a printed value. Entries after “also recorded” stand apart in the source; their conditions may differ. Where a SMILES comes first, the peptide text is derived from it. [ ]: non-standard residue; d: D form.

Turning to `CC[C@@H](C)[C@@H](NC(=O)[C@@H](CCSC)NC(=O)[C@@H](C)NC(=O)[C@@H](CCCNC(=N)N)NC(=O)[C@@H](Cc1c[nH]c2ccccc12)NC(=O)[C@@H](CCCCN)NC(=O)[C@H](N)CCCNC(=N)N)C(=O)N[C@H](CCCNC(=N)N)C(=O)N[C@H](CC(C)C)C(=O)N[C@H](Cc1c[nH]cn1)C(=O)N[C@H](C)C(=O)N[C@H](CCCCN)C(=O)N[C@H](CCCNC(=N)N)C(=O)N[C@H](CC(C)C)C(=O)N[C@H](CCCNC(=N)N)C(=O)N[C@H](CCCCN)C(=O)O` [Chain104D] (H-[dR][dK][dW][dR][dA][dM][dI][dR][dL][dH][dA][dK][dR][dL][dR][dK]-OH), the Minimum inhibitory concentration worked out at 8 in data set [1] (setting [11]); 8 in data set [1] (setting [12]); 8 in [1] (setting [13]); 8 in data set [1] (setting [14]); 8 in data set [1] (setting [15]); 4 in [3]. Further, the Minimum inhibitory concentration is recorded as 8 in data set [4] (setting [16]); 8 in data set [4] (setting [17]); 8 in data set [4] (setting [18]); 16 in data set [4] (setting [19]); 4 in data set [5] (setting [20]); 4 in data set [5] (setting [21]). Besides, the Minimum inhibitory concentration in [5] (setting [22]) is 4; in data set [5] (setting [23]), 2. In addition, in [2], the “Minimum inhibitory concentration, Acinetobacter johnsonii strain 1” value was found to be 8 µg/mL (≈ 3.77 µM).

Consider `CC[C@@H](C)[C@@H](NC(=O)[C@@H](CCSC)NC(=O)[C@@H](C)NC(=O)[C@@H](CCCNC(=N)N)NC(=O)[C@@H](Cc1c[nH]c2ccccc12)NC(=O)[C@@H](CCCCN)NC(=O)[C@H](N)CCCNC(=N)N)C(=O)N[C@H](CCCNC(=N)N)C(=O)N[C@H](CC(C)C)C(=O)N[C@H](Cc1c[nH]cn1)C(=O)N[C@H](C)C(=O)N[C@H](CCCCN)C(=O)N[C@H](Cc1c[nH]c2ccccc12)C(=O)N[C@H](CC(C)C)C(=O)N[C@H](CCCNC(=N)N)C(=O)N[C@H](CCCCN)C(=O)O` [Chain105D] (H-[dR][dK][dW][dR][dA][dM][dI][dR][dL][dH][dA][dK][dW][dL][dR][dK]-OH), for which the Minimum inhibitory concentration in data set [1] (setting [11]) is reported as 32; in [1] (setting [12]), 16; in data set [1] (setting [13]) it was 32; in data set [1] (setting [14]) it was 32; in [1] (setting [15]), 32; in data set [3], 8. In addition, the Minimum inhibitory concentration was 16 in data set [4] (setting [16]); 16 in data set [4] (setting [17]); 8 in data set [4] (setting [18]); 32 in data set [4] (setting [19]); 8 in data set [5] (setting [20]); 8 in data set [5] (setting [21]). In addition, the figures for the Minimum inhibitory concentration in [5] (setting [22]) and in [5] (setting [23]) were 8 and 4, respectively. Moreover, the “Minimum inhibitory concentration, Acinetobacter johnsonii strain 1” value in [2] amounted to 4 µg/mL (≈ 1.86 µM).

On to `CC(C)C[C@H](NC(=O)[C@H](Cc1c[nH]c2ccccc12)NC(=O)[C@H](Cc1ccccc1)NC(=O)[C@H](Cc1c[nH]c2ccccc12)NC(=O)[C@H](CCCCN)NC(=O)[C@H](CC(C)C)NC(=O)[C@@H](N)CCCNC(=N)N)C(=O)N[C@@H](Cc1ccccc1)C(=O)N[C@@H](CCCNC(=N)N)C(=O)N[C@@H](CCCCN)C(=O)N[C@@H](CCCNC(=N)N)C(=O)O` [Chain307] (H-RLKWFWLFRKR-OH; N-terminus and C-terminus assumed), for which the “side effects to humans as tested by hemolysis assay” value in [6] is recorded as “little side effects”. In addition, the “activity against the four ATCC strains” value in data set [7] is given as “very active”. Besides, in data set [8], the “antifungal activity against Aspergillus flavus” value is recorded as “has activity; also recorded: particularly active”. Further, the “antifungal activity against Penicillium chrysogenum” value in [9] is “has activity; also recorded: particularly active”.

As for `CC(C)C[C@H](NC(=O)[C@H](CCCCN)NC(=O)[C@H](CCCCN)NC(=O)[C@H](Cc1ccccc1)NC(=O)[C@H](CC(C)C)NC(=O)[C@H](Cc1c[nH]c2ccccc12)NC(=O)[C@H](CCCNC(=N)N)NC(=O)[C@H](Cc1c[nH]c2ccccc12)NC(=O)[C@H](CCCCN)NC(=O)[C@H](CCCNC(=N)N)NC(=O)[C@@H](N)CCCCN)C(=O)O` [Chain310] (H-KRKWRWLFKKL-OH; N-terminus and C-terminus assumed), the “side effects to humans as tested by hemolysis assay” value in [6] was “little side effects”. Besides, the “activity against the four ATCC strains” value in [7] was “very active”. Further, the “MIC against MRSA strains along with Ertapenem, L-peptide” value in [10] was found to be 0.06 µg/mL. Also, in [8], the “antifungal activity against Aspergillus flavus” value is recorded as “has activity; also recorded: particularly active”. In data set [9], the “antifungal activity against Penicillium chrysogenum” value is “has activity; also recorded: particularly active”.

(Values after US11096985B2, “Antimicrobial peptides, their variants and uses” (priority 2015, dated 2021).)
